Measured values: patent publication US10821093B2, “Antibacterial microelement chelates and the use thereof in animal feeds” (priority 2012, dated 2020)

How the values were obtained:
Escherichia coli = assay: MIC, liquid culture dilution (single chelates and cross-dilution combinations); type: cell-based
Salmonella enterica = assay: as above; type: cell-based, Salmonella enterica subp. Enterica serovar enteritidis
Clostridium perfringens = type: cell-based
[1] = test system: Brachyspira hyodysenteriae; assay: MIC (single chelates and combinations)
Staphylococcus aureus = assay: MIC, liquid culture dilution; type: cell-based
Streptococcus agalactiae = assay: MIC, liquid culture dilution; type: cell-based

Compound	Minimal inhibitory concentration (MIC) (Escherichia coli)	Minimal inhibitory concentration (MIC) (Salmonella enterica)	Minimal inhibitory concentration (MIC) (Clostridium perfringens)	Minimal inhibitory concentration (MIC) [1]	Minimal inhibitory concentration (MIC) (Staphylococcus aureus)	Minimal inhibitory concentration (MIC) (Streptococcus agalactiae)
O=C([O-])CN(CC(=O)[O-])CC(=O)O.[Zn+2] [Zn nitrolotriacetate]	40 ppm	40 ppm	–	–	–	–
Zn diaminonitrolo triacetic acid	–	–	400 ppm	600 ppm	–	–
Cu diammine tri-glutamate	–	–	30 ppm	–	487 ppm	8 ppm
Zn triammine tri-glutamate	–	–	469 ppm	–	58 ppm	15 ppm
Zn(H2O) bis-aspartate	103 ppm	–	–	–	–	–
Cu diammine tri-asparaginate	1400 ppm	>4000 ppm	44 ppm	–	1400 ppm	43 ppm
Zn asparaginate	–	–	297 ppm	–	18 ppm	37 ppm
[NH2][Zn]1([NH2])[O]C(=O)CN(CC(=O)O)CCN(CC(=O)O)CC(=O)[O]1 [Zn diamino ethylenediamine tetraacetic acid]	–	–	100 ppm	>4000 ppm	–	–
N[C@@H](CC(=O)[O-])C(=O)[O-].[Zn+2] [Zn mono-aspartate]	74 ppm	74 ppm	–	–	–	–
Zn diammine citrate	48 ppm	98 ppm	–	–	49 ppm	49 ppm
CCCC(=O)[O-].CCCC(=O)[O-].O.[Zn+2] [Zn(H2O) bis-butyrate]	110 ppm	110 ppm	–	–	–	–
Cu diaminonitrolo triacetic acid	–	–	120 ppm	200 ppm	–	–
Zn (H2O)2-ethylenediamine tetraacetic acid	–	–	400 ppm	320 ppm	–	–
Zn diammine tri-aspartate	114 ppm	228 ppm	–	–	–	–
Cu nitrolo triacetic acid	–	–	>4000 ppm	450 ppm	–	–
Zn diammine aspartate	92 ppm	184 ppm	–	–	–	–
Cu diammine glutamate	688 ppm	–	43 ppm	–	–	11 ppm
Zn diammine glutamate	167 ppm	–	245 ppm	–	61 ppm	15 ppm
O=C(O)CN1CCN(CC(=O)O)CC(=O)[O][Cu][O]C(=O)C1 [Cu ethylenediamine tetraacetic acid]	–	–	160 ppm	320 ppm	–	–
Zn(H2O) bis-glutamate	–	–	331 ppm	–	21 ppm	10 ppm
NC(=O)CC(N)C(=O)[O][Cu]([NH3+])([NH3+])[O]C(=O)C(N)CC(N)=O (stereo not drawn) [Cu diammine bis-asparaginate]	1025 ppm	2050 ppm	32 ppm	–	1025 ppm	16 ppm

Compound	Minimal inhibitory concentration (MIC) (Escherichia coli)	Minimal inhibitory concentration (MIC) (Salmonella enterica)	Minimal inhibitory concentration (MIC) (Clostridium perfringens)	Minimal inhibitory concentration (MIC) [1]	Minimal inhibitory concentration (MIC) (Staphylococcus aureus)	Minimal inhibitory concentration (MIC) (Streptococcus agalactiae)
N.N.NC(CC(=O)O)C(=O)[O-].NC(CC(=O)O)C(=O)[O-].[Zn+2] (stereo not drawn) [Zn diammine bis-aspartate]	123 ppm	247 ppm	–	–	–	–
O.O.O=C([O-])CN(CCN(CC(=O)[O-])CC(=O)O)CC(=O)O.[Cu+2] [Cu(H2O)2-ethylenediamine tetraacetic acid]	–	–	60 ppm	100 ppm	–	–
NC(CCC(=O)[O-])C(=O)[O-].[Zn+2] (stereo not drawn) [Zn mono-glutamate]	70 ppm	–	475 ppm	–	36 ppm	18 ppm
Zn(H2O) tri-aspartate	75 ppm	70 ppm	–	–	–	–
Zn diammine bis-asparaginate	–	–	494 ppm	–	62 ppm	15 ppm
Zn diammine tri-asparaginate	–	–	456 ppm	–	114 ppm	14 ppm
Zn tri-asparaginate	–	–	450 ppm	–	18 ppm	19 ppm
Cu diammine asparaginate	620 ppm	620 ppm	38 ppm	–	620 ppm	20 ppm
O=C([O-])CN(CCN(CC(=O)O)CC(=O)O)CC(=O)[O-].[Zn+2] [Zn ethylenediamine-tetraacetic acid]	–	–	1000 ppm	450 ppm	–	–
Zn diammine bis-histidinate	>4000 ppm	>4000 ppm	1950 ppm	–	>4000 ppm	12 ppm
Zn(NH4)4(glycine)2 [Zn tetraammine bis-glycinate]	140 ppm	140 ppm	–	–	–	–
NC(=O)C[C@H](N)C(=O)[O-].NC(=O)C[C@H](N)C(=O)[O-].[Zn+2] [Zn bis-asparaginate]	–	–	412 ppm	–	26 ppm	51 ppm
O=C(O)c1ccccc1[O-].O=C(O)c1ccccc1[O-].[Zn+2] [Zn bis-salycilate]	>4000 ppm	>4000 ppm	>4000 ppm	–	–	–
CCCCC(=O)[O-].CCCCC(=O)[O-].O.[Zn+2] [Zn(H2O) bis-valerianate]	120 ppm	120 ppm	–	–	–	–
N.N.NC(CCC(=O)O)C(=O)[O-].NC(CCC(=O)O)C(=O)[O-].[Cu+2] (stereo not drawn) [Cu diammine bis-glutamate]	–	–	97 ppm	–	387 ppm	24 ppm
Zn diammine asparaginate	–	–	369 ppm	–	46 ppm	23 ppm
N.N.NC(CCC(=O)O)C(=O)[O-].NC(CCC(=O)O)C(=O)[O-].[Zn+2] (stereo not drawn) [Zn diammine bis-glutamate]	–	–	334 ppm	–	42 ppm	21 ppm
O=C([O-])c1ccccc1.O=C([O-])c1ccccc1.[Zn+2] [Zn bis-benzoate]	>4000 ppm	>4000 ppm	>4000 ppm	–	–	–
NC(Cc1cnc[nH]1)C(=O)[O-].NC(Cc1cnc[nH]1)C(=O)[O-].[Zn+2] (stereo not drawn) [Zn bis-histidinate]	>4000 ppm	>4000 ppm	650 ppm	–	>4000 ppm	4 ppm
CCC(=O)[O-].CCC(=O)[O-].O.[Zn+2] [Zn(H2O) bis-propionate]	160 ppm	160 ppm	–	–	–	–
Zn(H2O) tri-glutamate	70 ppm	–	281 ppm	–	35 ppm	17 ppm
